We go through 22 compounds from ChEMBL document CHEMBL3994603, “Antioxidant Flavonols and Phenolic Compounds from Atraphaxis frutescens and Their Inhibitory Activities against Insect Phenoloxidase and Mushroom Tyrosinase” (J Nat Prod, 2016).

For this assay, the target named is Mushroom tyrosinase (Agaricus bisporus, UniProt O42713+Q00024+C7FF04+C7FF05).
Description: Inhibition of mushroom tyrosinase using L-DOPA as substrate preincubated for 5 mins followed by substrate addition measured for 10 mins by spectrophotometric method
As usually defined, the IC50 is the concentration that inhibits the measured activity by half. The compound `O=C(/C=C/c1ccc(O)cc1)NCCc1ccc(O)c(O)c1` had an IC50 of 4.3 mM.

Take `COc1cc(O)c2c(=O)c(O)c(-c3cc(O)c(O)c(O)c3)oc2c1OC(C)=O`: the IC50 is reported as above 5 mM.

`COc1cc(O)c2c(=O)c(O[C@@H]3O[C@@H](C)[C@H](O)[C@@H](O)[C@H]3O)c(-c3ccc(O)c(O)c3)oc2c1OC(C)=O` had an IC50 above 5 mM. `COc1cc(CO[C@@H]2O[C@H](CO)[C@@H](O)[C@H](O)[C@H]2O)cc(OC)c1OC` returned a 50% inhibitory concentration (IC50) above 5 mM. Then `COc1cc(CO[C@@H]2O[C@H](CO[C@@H]3O[C@@H](C)[C@H](O)[C@@H](O)[C@H]3O)[C@@H](O)[C@H](O)[C@H]2O)cc(OC)c1OC`, with above 5 mM; and `COc1cc(O)c2c(=O)c(O[C@@H]3O[C@@H](C)[C@H](O)[C@@H](O)[C@H]3O)c(-c3cc(O)c(O)c(O)c3)oc2c1O`, with 1.2 mM; and `COc1cc(O)c2c(=O)c(O)c(-c3cc(O)c(O)c(O)c3)oc2c1O`, with above 5 mM. The value for `COc1cc(O)c2c(=O)c(O[C@@H]3O[C@@H](C)[C@H](O)[C@@H](O)[C@H]3O)c(-c3ccc(O)c(O)c3)oc2c1O` was 2.2 mM; that for `COc1cc(O)c2c(=O)c(O[C@@H]3O[C@@H](C)[C@H](O)[C@@H](O)[C@H]3O)c(-c3cc(O)c(O)c(O)c3)oc2c1O[C@@H]1O[C@H](CO)[C@@H](O)[C@H](O)[C@H]1O` was 0.9 mM. `COc1cc(O)c2c(=O)c(O[C@@H]3O[C@@H](C)[C@H](O)[C@@H](O)[C@H]3O)c(-c3ccc(O)c(O)c3)oc2c1O[C@@H]1O[C@H](CO)[C@@H](O)[C@H](O)[C@H]1O`: the IC50 was 4 mM.

`COc1cc(O)c2c(=O)c(O[C@@H]3O[C@@H](C)[C@H](O)[C@@H](O)[C@H]3O)c(-c3cc(O)c(O)c(O)c3)oc2c1OC(C)=O`: the half-inhibitory concentration (IC50) came to 4.7 mM. `COc1cc(O)c2c(=O)c(O)c(-c3ccc(O)c(O)c3)oc2c1O`: the half-maximal inhibitory concentration (IC50) is recorded as above 5 mM. The compound `COc1cc(O)c2c(=O)c(O[C@@H]3O[C@@H](C)[C@H](O)[C@@H](O)[C@H]3O)c(-c3cc(O)c(O)c(O)c3)oc2c1` showed an IC50 of 1.1 mM.

For `COc1cc(O)c2c(=O)c(O)c(-c3ccc(O)c(O)c3)oc2c1OC(C)=O`, the IC50 is recorded as above 5 mM. `C[C@@H]1O[C@@H](Oc2c(-c3cc(O)c(O)c(O)c3)oc3cc(O)cc(O)c3c2=O)[C@H](O)[C@H](O)[C@H]1O` came in with an IC50 of 2 mM. The value for `Oc1cc(O)c2c(c1)O[C@H](c1ccc(O)c(O)c1)[C@H](O)C2` [(-)-EPICATECHIN] was above 5 mM. The compound `Oc1cc(O)c2c(c1)O[C@H](c1cc(O)c(O)c(O)c1)[C@H](O)C2` [EPIGALLOCATECHIN] had a 50% inhibitory concentration (IC50) of 0.7 mM. `Oc1cc(O)c2c(c1)O[C@H](c1cc(O)c(O)c(O)c1)[C@@H](O)C2` [GALLOCATECHIN] returned an IC50 of 0.16 mM. The value for `O=C(/C=C/c1ccc(O)cc1)NCCc1ccc(O)cc1` [N-P-COUMAROYL TYRAMINE] was above 5 mM. In turn, `COc1cc(/C=C/C(=O)NCCc2ccc(O)cc2)ccc1O` [N-TRANS-FERULOYL TYRAMINE] yielded an IC50 above 5 mM. For `COc1cc(/C=C/C(=O)NCCc2ccc(O)c(O)c2)ccc1O` [N-TRANS-FERULOYLDOPAMINE], the IC50 was above 5 mM. The value for `Cc1c(C)c2c(c(C)c1O)CCC(C)(C(=O)O)O2` (configuration not stated) [TROLOX] was 0.7 mM.
